Columns and labels:
Type in all cases: in vivo
[1] = tested on: ivy-leaved morning glory (Ipomoea hederacea); test: Test G Post-Emergence Protocol; conditions: Ipomoea, post-emergence, 312 h; for pest or weed control at 15.625 g/ha: 15.625 g ai/ha, evaluated after 13 days (100=total damage to plant; 0=no damage to plant), read-out: Morningglory, Ivy-leaved damage rating; for pest or weed control at 62.5 g/ha: 62.5 g ai/ha, read-out: Morningglory, Ivy-leaved damage rating (100=total damage to plant; 0=no damage to plant); for pest or weed control at 62.5 g/ha / pest or weed control at 250 g/ha: evaluated after 13 days; for pest or weed control at 250 g/ha: 250 g ai/ha, read-out: damage to plant, Morningglory, Ivy-leaved (100=total damage to plant; 0=no damage to plant)
Summary of the method: (§1)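 Post-emergence herbicidal damage, scored visually 0–100 at 13 days. Application at 15.625, 62.5 or 250 g/ha onto 8-day-old plants grown under glasshouse control.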

[2] = tested on: barnyardgrass (Echinochloa crus-galli); test: Test G Post-Emergence Protocol; conditions: Echinochloa crus-galli, post-emergence, 312 h; for pest or weed control at 15.625 g/ha: 15.625 g ai/ha, evaluated after 13 days (100=total damage to plant; 0=no damage to plant), read-out: Barnyardgrass damage rating; for pest or weed control at 62.5 g/ha: 62.5 g ai/ha, read-out: Barnyardgrass damage rating (100=total damage to plant; 0=no damage to plant); for pest or weed control at 62.5 g/ha / pest or weed control at 250 g/ha: evaluated after 13 days; for pest or weed control at 250 g/ha: 250 g ai/ha, read-out: damage to plant, Barnyardgrass (100=total damage to plant; 0=no damage to plant)
Summary of the method: as §1

[3] = tested on: giant foxtail (Setaria faberi); test: Test G Post-Emergence Protocol; conditions: Setaria faberi, post-emergence, 312 h; for pest or weed control at 15.625 g/ha: 15.625 g ai/ha, evaluated after 13 days (100=total damage to plant; 0=no damage to plant), read-out: Foxtail, Giant damage rating; for pest or weed control at 62.5 g/ha: 62.5 g ai/ha, read-out: Foxtail, Giant damage rating (100=total damage to plant; 0=no damage to plant); for pest or weed control at 62.5 g/ha / pest or weed control at 250 g/ha: evaluated after 13 days; for pest or weed control at 250 g/ha: 250 g ai/ha, read-out: damage to plant, Foxtail, Giant (100=total damage to plant; 0=no damage to plant)
Summary of the method: as §1

[4] = tested on: velvetleaf (Abutilon theophrasti); test: Test G Post-Emergence Protocol; conditions: Abutilon theophrasti, post-emergence, 312 h; for pest or weed control at 15.625 g/ha: 15.625 g ai/ha, evaluated after 13 days (100=total damage to plant; 0=no damage to plant), read-out: Velvetleaf damage rating; for pest or weed control at 62.5 g/ha: 62.5 g ai/ha, read-out: Velvetleaf damage rating (100=total damage to plant; 0=no damage to plant); for pest or weed control at 62.5 g/ha / pest or weed control at 250 g/ha: evaluated after 13 days; for pest or weed control at 250 g/ha: 250 g ai/ha, read-out: damage to plant, Velvetleaf (100=total damage to plant; 0=no damage to plant)
Summary of the method: as §1

corn (Zea mays) [5] = test: Test G Post-Emergence Protocol; conditions: Zea mays, post-emergence, 312 h; for plant injury at 15.625 g/ha: 15.625 g ai/ha, evaluated after 13 days (100=total damage to plant; 0=no damage to plant), read-out: Corn damage rating; for plant injury at 62.5 g/ha: 62.5 g ai/ha, read-out: Corn damage rating (100=total damage to plant; 0=no damage to plant); for plant injury at 62.5 g/ha / plant injury at 250 g/ha: evaluated after 13 days; for plant injury at 250 g/ha: 250 g ai/ha, read-out: damage to plant, Corn (100=total damage to plant; 0=no damage to plant)
Summary of the method: as §1

[6] = tested on: redroot pigweed (Amaranthus retroflexus); test: Test G Post-Emergence Protocol; conditions: Amaranthus retroflexus, post-emergence, 312 h; for pest or weed control at 15.625 g/ha: 15.625 g ai/ha, evaluated after 13 days (100=total damage to plant; 0=no damage to plant), read-out: Pigweed, Redroot damage rating; for pest or weed control at 62.5 g/ha: 62.5 g ai/ha, read-out: Pigweed, Redroot damage rating (100=total damage to plant; 0=no damage to plant); for pest or weed control at 62.5 g/ha / pest or weed control at 250 g/ha: evaluated after 13 days; for pest or weed control at 250 g/ha: 250 g ai/ha, read-out: damage to plant, Pigweed, Redroot (100=total damage to plant; 0=no damage to plant)
Summary of the method: as §1

[7] = tested on: ivy-leaved morning glory (Ipomoea hederacea); test: Test G Pre-Emergence Protocol; conditions: Ipomoea, pre-emergence, 312 h, evaluated after 13 days; for pest or weed control at 15.625 g/ha: 15.625 g ai/ha, read-out: Morning-glory, Ivy-leaved damage rating (100=total damage to plant; 0=no damage to plant); for pest or weed control at 62.5 g/ha: 62.5 g ai/ha, 100=total damage to plant, 0=no damage to plant, read-out: plant damage rating, Morningglory, Ivy-leaved; for pest or weed control at 250 g/ha: 250 g ai/ha, read-out: Morningglory, Ivy-leaved damage rating (100=total damage to plant; 0=no damage to plant)
Summary of the method: (§2)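 Seeds were sown in standard soil and kept one day in a glasshouse (24/16° C day/night, 14 h light, 65% humidity), then sprayed with compound in acetone/water (50:50) containing 0.5% Tween 20 at 15.625, 62.5 or 250 g/ha. Damage was scored after 13 days (0 = none, 100 = total).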

[8] = tested on: barnyardgrass (Echinochloa crus-galli); test: Test G Pre-Emergence Protocol; conditions: Echinochloa crus-galli, pre-emergence, 312 h, evaluated after 13 days; for pest or weed control at 15.625 g/ha: 15.625 g ai/ha, read-out: Barnyard grass damage rating (100=total damage to plant; 0=no damage to plant); for pest or weed control at 62.5 g/ha: 62.5 g ai/ha, 100=total damage to plant, 0=no damage to plant, read-out: plant damage rating, Barnyardgrass; for pest or weed control at 250 g/ha: 250 g ai/ha, read-out: Barnyardgrass damage rating (100=total damage to plant; 0=no damage to plant)
Summary of the method: as §2

[9] = tested on: giant foxtail (Setaria faberi); test: Test G Pre-Emergence Protocol; conditions: Setaria faberi, pre-emergence, 312 h, evaluated after 13 days; for pest or weed control at 15.625 g/ha: 15.625 g ai/ha; for pest or weed control at 15.625 g/ha / pest or weed control at 250 g/ha: read-out: Foxtail, Giant damage rating (100=total damage to plant; 0=no damage to plant); for pest or weed control at 62.5 g/ha: 62.5 g ai/ha, 100=total damage to plant, 0=no damage to plant, read-out: plant damage rating, Foxtail, Giant; for pest or weed control at 250 g/ha: 250 g ai/ha
Summary of the method: as §2

[10] = tested on: velvetleaf (Abutilon theophrasti); test: Test G Pre-Emergence Protocol; conditions: Abutilon theophrasti, pre-emergence, 312 h, evaluated after 13 days; for pest or weed control at 15.625 g/ha: 15.625 g ai/ha; for pest or weed control at 15.625 g/ha / pest or weed control at 250 g/ha: read-out: Velvetleaf damage rating (100=total damage to plant; 0=no damage to plant); for pest or weed control at 62.5 g/ha: 62.5 g ai/ha, 100=total damage to plant, 0=no damage to plant, read-out: plant damage rating, Velvetleaf; for pest or weed control at 250 g/ha: 250 g ai/ha
Summary of the method: as §2

corn (Zea mays) [11] = test: Test G Pre-Emergence Protocol; conditions: Zea mays, pre-emergence, 312 h, evaluated after 13 days; for plant injury at 15.625 g/ha: 15.625 g ai/ha; for plant injury at 15.625 g/ha / plant injury at 250 g/ha: read-out: Corn damage rating (100=total damage to plant; 0=no damage to plant); for plant injury at 62.5 g/ha: 62.5 g ai/ha, 100=total damage to plant, 0=no damage to plant, read-out: plant damage rating, Corn; for plant injury at 250 g/ha: 250 g ai/ha
Summary of the method: as §2

[12] = tested on: redroot pigweed (Amaranthus retroflexus); test: Test G Pre-Emergence Protocol; conditions: Amaranthus retroflexus, pre-emergence, 312 h, evaluated after 13 days; for pest or weed control at 15.625 g/ha: 15.625 g ai/ha; for pest or weed control at 15.625 g/ha / pest or weed control at 250 g/ha: read-out: Pigweed, Redroot damage rating (100=total damage to plant; 0=no damage to plant); for pest or weed control at 62.5 g/ha: 62.5 g ai/ha, 100=total damage to plant, 0=no damage to plant, read-out: plant damage rating, Pigweed, Redroot; for pest or weed control at 250 g/ha: 250 g ai/ha
Summary of the method: as §2

SMILES | pest or weed control at 15.625 g/ha [1] [%] | pest or weed control at 62.5 g/ha [1] [%] | pest or weed control at 250 g/ha [1] [%] | pest or weed control at 15.625 g/ha [2] [%] | pest or weed control at 62.5 g/ha [2] [%] | pest or weed control at 250 g/ha [2] [%] | pest or weed control at 15.625 g/ha [3] [%] | pest or weed control at 62.5 g/ha [3] [%] | pest or weed control at 250 g/ha [3] [%] | pest or weed control at 15.625 g/ha [4] [%] | pest or weed control at 62.5 g/ha [4] [%] | pest or weed control at 250 g/ha [4] [%] | plant injury at 15.625 g/ha (corn (Zea mays) [5]) [%] | plant injury at 62.5 g/ha (corn (Zea mays) [5]) [%] | plant injury at 250 g/ha (corn (Zea mays) [5]) [%] | pest or weed control at 15.625 g/ha [6] [%] | pest or weed control at 62.5 g/ha [6] [%] | pest or weed control at 250 g/ha [6] [%] | pest or weed control at 15.625 g/ha [7] [%] | pest or weed control at 62.5 g/ha [7] [%] | also measured
CN1C[C@@H](c2ccc(C(F)(F)F)cc2)[C@H](C(=O)Nc2ccon2)C1=O (racemic) [Compound 1506] | 0 | 0 | 0 | 0 | 0 | 0 | 0 | 0 | 0 | 0 | 0 | 0 | 0 | 0 | 0 | 0 | 0 | 0 | 0 | 0 | pest or weed control at 250 g/ha [7]: 0%; pest or weed control at 15.625 g/ha [8]: 0%; pest or weed control at 62.5 g/ha [8]: 0%; pest or weed control at 250 g/ha [8]: 0%; pest or weed control at 15.625 g/ha [9]: 0%; pest or weed control at 62.5 g/ha [9]: 0%; pest or weed control at 250 g/ha [9]: 0%; pest or weed control at 15.625 g/ha [10]: 0%; pest or weed control at 62.5 g/ha [10]: 0%; pest or weed control at 250 g/ha [10]: 0%; plant injury at 15.625 g/ha (corn (Zea mays) [11]): 0%; plant injury at 62.5 g/ha (corn (Zea mays) [11]): 0%; plant injury at 250 g/ha (corn (Zea mays) [11]): 0%; pest or weed control at 15.625 g/ha [12]: 0%; pest or weed control at 62.5 g/ha [12]: 0%; pest or weed control at 250 g/ha [12]: 0%
CN1C[C@@H](c2ccc(C(F)(F)F)cc2)[C@H](C(=O)Nc2cccc(C(F)(F)F)c2[N+](=O)[O-])C1=O (racemic) [Compound 1594] | 0 | 0 | 0 | 0 | 20 | 20 | 0 | 20 | 20 | 0 | 0 | 0 | 0 | 0 | 0 | 0 | 0 | 0 | 0 | 0 | pest or weed control at 250 g/ha [7]: 0%; pest or weed control at 15.625 g/ha [8]: 0%; pest or weed control at 62.5 g/ha [8]: 20%; pest or weed control at 250 g/ha [8]: 20%; pest or weed control at 15.625 g/ha [9]: 0%; pest or weed control at 62.5 g/ha [9]: 40%; pest or weed control at 250 g/ha [9]: 30%; pest or weed control at 15.625 g/ha [10]: 0%; pest or weed control at 62.5 g/ha [10]: 0%; pest or weed control at 250 g/ha [10]: 0%; plant injury at 15.625 g/ha (corn (Zea mays) [11]): 0%; plant injury at 62.5 g/ha (corn (Zea mays) [11]): 10%; plant injury at 250 g/ha (corn (Zea mays) [11]): 10%; pest or weed control at 15.625 g/ha [12]: 0%; pest or weed control at 62.5 g/ha [12]: 0%; pest or weed control at 250 g/ha [12]: 0%
